Experimental data published in BindingDB's records for doi:10.1016/j.bmcl.2005.05.109 (Merck Research Laboratories, 2005).

Experiment: Inhibition concentration (binding affinity) against […] melanocortin receptor 4 by displacement of [125I]NDP-alpha-MSH from the human receptors expressed in CHO cells

CN1C[C@H]2CC[C@@H]1[C@H](C(=O)N[C@H](Cc1ccc(F)cc1)C(=O)N1CCC(C(=O)NC(C)(C)C)(C3CCCCC3)CC1)C2 [(1R,4S,6R)-2-Methyl-2-aza-bicyclo[2.2.2]octane-6-carboxylic acid [(R)-2-(4-tert-butylcarbamoyl-4-cyclohexyl-piperidin-1-yl)-1-(4-fluoro-benzyl)-2-oxo-ethyl]-amide]
IC50: 7 µM
